From US11567065B2, “Measuring frequency of pathogen-specific T cells in peripheral blood” (THOMAS JEFFERSON UNIVERSITY, priority 2015, dated 2023)

Tested on: 68A62 CTL
Test: CaFlux assay: Ca2+ flux in monolayer of 68A62 CTL
Format: cell-based, human
Details: FIG. 4A
Protocol: 10^6 cells in 1 ml of PBS were loaded with Fluo-4 (Life Technologies) at 2-4 μM for 30 min at 37° C. in the presence of 0.02% pluoronic acid F-127 and 4 mM Probenecid. The cells were washed free of unreacted reagents and incubated at 37° C. for additional 30 min. The cells were then re-suspended in the assay buffer (Dulbecco's PBS containing 1 mM CaCl2, 2 mM MgCl2, 5 mM glucose, and 0.025% BSA) and used for Ca2+ flux analysis.
Glass bottom of 96 well MatTec plates was covered with poly-L-Lysine (Sigma, mol wt>300,000) at 0.1 mg/ml for 1 hr at room temperature. After washing with DPBS and dd water, TS2/4 non-blocking mAb specific for LFA-1 were added to the plate at concentration 10 μg/ml overnight & 4° C. The wells were washed with DPBS, and 3×10^5 Fluo-4-labeled T cells in 100 μl of the assay buffer were added to each well. The plates were centrifuged for 700 g for one minute and were incubated for 30 min at room temperature prior to the imaging. […] The quality of T cell monolayer was assessed using bright field microscopy.
To identify responding T cells we imaged T-cell monolayers before (background measurement) and after (response) addition of the stimulatory signal such as agonist peptide. […] The average intensity of images prior and after the T-cell stimulation at various time points and the numbers of individual responding cells per imaging field were determined by MetaMorph software.

ILKEPVHGV (IV9)
time to maximum of Ca2+ increase following stimulation: 2 to 3 min
